Assays:
[1] = tested on: human retinal vascular endothelial cells (HRMECs); assay: Permeability of human retinal vascular endothelial cells (Transwell, FITC-dextran); assay type: cell-based; conditions: HRMECs in Transwell; 0.3 nM, 3 nM or 30 nM; 60 minutes pre-culture, 60 minutes after FITC-dextran (40 kDa)
Protocol: The upper chamber of Transwell (diameter: 6.5 mm, pore size: 0.4 μm: Corning Incorporated) coated with collagen and fibronectin was seeded with human retinal vascular endothelial cells (HRMECs) (Cell Systems) at a cell density of 5×10^4 cells/well, and the cells were cultured in Endothelial Cell Growth Medium MV 2 (PromoCell GmbH) under a 5% CO2 atmosphere at 37° C. for 6 days. Then, to the upper chamber and lower chamber of the Transwell, Compound 1 at a final concentration of 0 nM, 0.3 nM, 3 nM, or 30 nM, which had been prepared using 0.001% dimethyl sulfoxide-containing Endothelial Cell Growth Medium MV 2 as a vehicle, was added, and culture was continued. A well to which only the vehicle was added was used as a control. After 60 minutes of culture, 1 mg/mL of fluorescein isothiocyanate (FITC)-dextran (40 kDa: Sigma-Aldrich) was added to the upper chamber of the Transwell, and 60 minutes later, the fluorescence intensity of the medium in the lower chamber was measured to measure the amount of FITC-dextran permeating the lower chamber.

S1P3 receptor = S1P3 receptor (Homo sapiens, UniProt Q99500); assay: GTP[γ35S] binding assay, S1P3 receptor agonist activity; assay type: biochemical
Chain of S1P3 receptor (Q99500 whole entry): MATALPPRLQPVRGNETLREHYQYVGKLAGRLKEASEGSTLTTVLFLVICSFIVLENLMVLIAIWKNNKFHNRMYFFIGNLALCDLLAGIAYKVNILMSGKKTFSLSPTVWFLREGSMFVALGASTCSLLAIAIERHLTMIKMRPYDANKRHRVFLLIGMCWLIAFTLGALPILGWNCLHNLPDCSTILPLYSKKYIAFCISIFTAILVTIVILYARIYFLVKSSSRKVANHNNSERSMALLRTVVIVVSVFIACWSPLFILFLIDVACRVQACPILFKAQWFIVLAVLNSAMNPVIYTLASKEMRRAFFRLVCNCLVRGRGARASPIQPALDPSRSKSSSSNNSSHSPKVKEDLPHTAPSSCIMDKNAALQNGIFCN

S1P1 receptor = S1P1 receptor (Homo sapiens, UniProt P21453); assay: GTP[γ35S] binding assay, S1P1 receptor agonist activity
Chain of S1P1 receptor (P21453 whole entry): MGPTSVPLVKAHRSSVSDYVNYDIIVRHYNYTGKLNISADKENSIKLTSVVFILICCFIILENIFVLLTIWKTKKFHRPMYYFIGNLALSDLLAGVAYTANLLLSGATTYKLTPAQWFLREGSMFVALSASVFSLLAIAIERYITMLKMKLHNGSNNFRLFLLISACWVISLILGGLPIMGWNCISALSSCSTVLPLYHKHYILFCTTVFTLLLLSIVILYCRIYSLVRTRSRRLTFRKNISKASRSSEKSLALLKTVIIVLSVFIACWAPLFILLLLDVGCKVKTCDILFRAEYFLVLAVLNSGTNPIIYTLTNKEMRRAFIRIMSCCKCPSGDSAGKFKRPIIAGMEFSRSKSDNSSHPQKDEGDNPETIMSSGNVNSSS

[2] = tested on: laser-induced choroidal neovascularization (CNV) model; assay: Laser-induced CNV model: fluorescein angiography (FA) grade; assay type: in vivo, mice; conditions: 0.3 mg/kg orally once daily; Day 14 (Comparative Example 1)
Protocol: A Mydrin-P ophthalmic solution (Santen Pharmaceutical Co., Ltd., Mydrin is a trademark) was dropped into the right eye of 8-week-old mice (Japan SLC, Inc., C56BL/6J strain) to cause mydriasis. A solution obtained by diluting a 7:1 mixed anesthetic solution of ketamine and xylazine 10-fold with physiological saline was administered at 10 mL/kg into the femoral muscle. After that, a 0.1% Hyalein (trademark) ophthalmic solution (Santen Pharmaceutical Co., Ltd.) was dropped into the eye so as to prevent the eyeball from drying. […]
Sampling was performed on the 14th day after the laser irradiation. The mice were anesthetized with 10 mL/kg of a solution obtained by diluting a 7:1 mixed anesthetic solution of ketamine and xylazine 10-fold with physiological saline, and then 0.1 mL of a 10-fold dilution of fluorescein (Alcon Japan Ltd.) was administered into the tail vein of the mice, followed by fluorescence fundus photography using Micron 4 (Phoenix Research Laboratories, Inc. Pleasanton, Calif., USA).
In FIG. 1 (a), Day 0 indicates images taken on the day of the laser irradiation, and Day 14 indicates images taken on the 14th day. In addition, for the image of each group on Day 14, an FA grade was determined for each laser irradiation site in accordance with grade criteria shown in Table 1 to evaluate the leakage of a fluorescent dye from a neovascularization site. […]

[3] = tested on: laser-induced choroidal neovascularization (CNV) model; assay: Laser-induced CNV model: area of CNV in choroidal flat mount; assay type: in vivo, mice; conditions: 0.3 mg/kg orally once daily; Day 14 (Comparative Example 1; BZ-X710, Image J)
Protocol: After fluorescence fundus photography had been performed as described above in the section (1), 0.5 mL of fluorescein isothiocyanate dextran (FITC-dextran; 20 mg/mL, Sigma-Aldrich) was administered into the tail vein of the mice. The mice were euthanized by cervical dislocation, and the eyeball was extirpated. The extirpated eyeball was fixed in a 4% paraformaldehyde phosphate buffer for 12 hours. After that, the cornea and lens were excised under a microscope, and the remaining vitreous artery was removed with forceps. Further, the retina was removed, and the choroid was notched 8 points and embedded with Fluoromount (Diagnostic BioSystems) in a flat state to generate a choroidal flat mount specimen. The choroidal flat mount was photographed using a confocal laser scanning microscope (FLUOVIEW FV10i; Olympus, Tokyo, Japan). Next, on the basis of the photographed image, the CNV was encircled using analysis software OLYMPUS FLUOVIEW FV10i (Olympus), and the area thereof was determined as the area of CNV (μm^2). All analyses were performed in a blinded manner. After fluorescence fundus photography had been performed as described above in the section (1), a choroidal flat mount specimen was generated by the same method as in Example 1. The choroidal flat mount was photographed using an all-in-one fluorescence microscope (BZ-X710; Keyence, Osaka, Japan). Next, on the basis of the photographed image, the CNV was encircled using image editing software Image J, and the area thereof was determined as the area of CNV (μm^2). All analyses were performed in a blinded manner.

Body weight in CNV model = assay type: in vivo, mice; conditions: oral once daily dosing, vs vehicle group
Text: A case in which FA was unable to be performed owing to cloudiness caused by a flaw in the eye produced before the FA evaluation and a case in which CNV was connected at the time of the evaluation of the area of CNV were excluded from analysis, and the above-mentioned results were each calculated as a mean of 11 or 12 mice in each group. […] A case in which FA was unable to be performed owing to cloudiness caused by a flaw in the eye produced before the FA evaluation and a case in which CNV was connected at the time of the evaluation of the area of CNV were excluded from analysis, and the above-mentioned results were each calculated as a mean of 12 mice in each group.

S1P4 receptor = target: T1, S1P4 receptor (Homo sapiens, UniProt O95977); conditions: GTP[γ35S] binding assay; report PLoS One, 2014, 9(10), e110819; read-out: EC50 for S1P4 receptor agonist activity; cited from earlier work
T1 sequence (O95977 1-384): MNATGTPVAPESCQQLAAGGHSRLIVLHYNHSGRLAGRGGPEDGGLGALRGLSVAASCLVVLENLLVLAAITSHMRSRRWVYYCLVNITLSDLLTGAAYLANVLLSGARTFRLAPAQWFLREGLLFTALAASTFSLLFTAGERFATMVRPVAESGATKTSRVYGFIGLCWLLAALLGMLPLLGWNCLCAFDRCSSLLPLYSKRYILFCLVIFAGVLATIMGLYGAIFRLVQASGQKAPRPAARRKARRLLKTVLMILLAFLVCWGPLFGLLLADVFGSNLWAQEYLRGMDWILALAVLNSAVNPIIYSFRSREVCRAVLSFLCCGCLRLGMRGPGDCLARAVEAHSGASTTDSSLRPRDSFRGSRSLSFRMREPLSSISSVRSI

SMILES: CCc1cc(/C(C)=N/OCc2ccc(C3CCCCC3)c(C(F)(F)F)c2)ccc1CN1CC(C(=O)O)C1 [Compound 3, 1-({4-[(1E)-N-{[4-cyclohexyl-3-(trifluoromethyl)phenyl]methoxy}ethanimidoyl]-2-ethylphenyl}methyl)azetidine-3-carboxylic acid]
- amount of FITC-dextran permeating the lower chamber (fluorescence intensity) [1]: significantly decreased the amount of FITC-dextran permeating the lower chamber

SMILES: Cl.O=C(O)C1CCN(CC2=Cc3ccc(OCc4ccc(OCC(F)(F)F)c(C(F)(F)F)c4)cc3OC2)CC1 [Compound 2, 1-[(7-{[4-(2,2,2-trifluoroethoxy)-3-(trifluoromethyl)phenyl]methoxy}-2H-1-benzopyran-3-yl)methyl]piperidine-4-carboxylic acid monohydrochloride]
- EC50 (S1P3 receptor): 1760 nM
- EC50 for S1P3 receptor agonist activity as compared to that for the S1P1 receptor (S1P3 receptor): ≥ 100 fold
- amount of FITC-dextran permeating the lower chamber (fluorescence intensity) [1]: significantly decreased the amount of FITC-dextran permeating the lower chamber
- EC50 (S1P1 receptor): 13.4 nM

SMILES: CCC/N=C1\S/C(=C\c2ccc(OC[C@H](O)CO)c(Cl)c2)C(=O)N1c1ccccc1C [Compound 5, (2Z,5Z)-5-({3-chloro-4-[(2R)-2,3-dihydroxypropoxy]phenyl}methylidene)-3-(2-methylphenyl)-2-(propylimino)-1,3-thiazolidin-4-one]
- amount of FITC-dextran permeating the lower chamber (fluorescence intensity) [1]: significantly decreased the amount of FITC-dextran permeating the lower chamber

SMILES: CC(C)Oc1ccc(-c2nc(-c3cccc4c3CC[C@@H]4NCCO)no2)cc1C#N [Compound 4, 5-(3-{(1S)-1-[(2-hydroxyethyl)amino]-2,3-dihydro-1H-inden-4-yl}-1,2,4-oxadiazol-5-yl)-2-[(propan-2-yl)oxy]benzonitrile]
- amount of FITC-dextran permeating the lower chamber (fluorescence intensity) [1]: significantly decreased the amount of FITC-dextran permeating the lower chamber

SMILES: NC(CO)(CCc1ccc(Sc2cccc(OCc3ccccc3)c2)cc1Cl)COP(=O)(O)O (stereo not shown) [Compound 7, 2-amino-4-(4-{[3-(benzyloxy)phenyl]sulfanyl}-2-chlorophenyl)-2-(hydroxymethyl)butyl dihydrogen phosphate]
- amount of FITC-dextran permeating the lower chamber (fluorescence intensity) [1]: significantly decreased the amount of FITC-dextran permeating the lower chamber

SMILES: CCCCCCCCc1ccc(CCC(N)(CO)CO)cc1.Cl [FTY720, 2-amino-2-[2-(4-octylphenyl)ethyl]propane-1,3-diol monohydrochloride, reference compound]
- FA grade as compared to the vehicle group [2]: a significant lowering in FA grade was not found
- area of CNV [3]: not found to significantly decrease the area of CNV
- change in body weight between the groups before sampling (Body weight in CNV model): a significant change in body weight between the groups before sampling was not found

SMILES: O=C(O)C[C@H]1CCc2c1[nH]c1ccc(OCc3ccc(C4CCCC4)c(C(F)(F)F)c3)cc21 [Compound 6, [(3R)-7-{[4-cyclopentyl-3-(trifluoromethyl)phenyl]methoxy}-1,2,3,4-tetrahydrocyclopenta[b]indol-3-yl]acetic acid]
- amount of FITC-dextran permeating the lower chamber (fluorescence intensity) [1]: significantly decreased the amount of FITC-dextran permeating the lower chamber

SMILES: CCCCCCCCc1ccc(CCC(N)(CO)COP(=O)(O)O)cc1 (stereo not shown) [FTY720-P, 2-amino-2-(hydroxymethyl)-4-(4-octylphenyl)butyl dihydrogenphosphate, reference compound]
- EC50 (S1P4 receptor): 2.2 nM

Source: patent US20210113529A1, “MEDICINE FOR PREVENTING OR TREATING OPHTHALMIC DISEASE ASSOCIATED WITH ENHANCED INTRAOCULAR NEOVASCULARIZATION AND/OR INTRAOCULAR VASCULAR PERMEABILITY” (KYOTO UNIVERSITY, priority 2018, published 2021)
